According to ChEMBL document CHEMBL1697731, “Cheminformatics analysis of assertions mined from literature that describe drug-induced liver injury in different species” (Chem Res Toxicol, 2010):

How the values were obtained:
[1] = test system: Hepatotoxicity; assay: Literature-mined compound from Fourches et al multi-species drug-induced liver injury (DILI) dataset, effect in rodents; conditions: rodentia
[2] = test system: Hepatotoxicity; assay: Literature-mined compound from Fourches et al multi-species drug-induced liver injury (DILI) dataset, effect in non-rodents
[3] = test system: Hepatotoxicity; assay: Literature-mined compound from Fourches et al multi-species drug-induced liver injury (DILI) dataset, effect in humans; conditions: human

Row | Compound | Hepatotoxicity [1] | Hepatotoxicity [2] | Hepatotoxicity [3] | Hepatotoxicity ([1]; Liver) | Hepatotoxicity ([2]; Liver) | Hepatotoxicity ([3]; Liver)
1 | O=C(OC[C@H]1O[C@@H](OC(=O)c2cc(O)c(O)c(OC(=O)c3cc(O)c(O)c(O)c3)c2)[C@H](OC(=O)c2cc(O)c(O)c(OC(=O)c3cc(O)c(O)c(O)c3)c2)[C@@H](OC(=O)c2cc(O)c(O)c(OC(=O)c3cc(O)c(O)c(O)c3)c2)[C@@H]1OC(=O)c1cc(O)c(O)c(OC(=O)c2cc(O)c(O)c(O)c2)c1)c1cc(O)c(O)c(OC(=O)c2cc(O)c(O)c(O)c2)c1 [TANNIC ACID] | drug-induced liver injury reported | drug-induced liver injury reported | no drug-induced liver injury reported |  |  | 
2 | O=c1[nH]c(=O)n(C2CCCO2)cc1F (stereo not given) [TEGAFUR] | no drug-induced liver injury reported | no drug-induced liver injury reported | drug-induced liver injury reported |  |  | 
3 | CC[C@H]1OC(=O)[C@H](C)C(=O)[C@H](C)[C@@H](O[C@@H]2O[C@H](C)C[C@H](N(C)C)[C@H]2O)[C@](C)(OC)C[C@@H](C)C(=O)[C@H](C)[C@H]2N(CCCCn3cnc(-c4cccnc4)c3)C(=O)O[C@]12C [TELITHROMYCIN] |  |  |  | drug-induced liver injury reported | no drug-induced liver injury reported | drug-induced liver injury reported
4 | Cn1nnc2c(C(N)=O)ncn2c1=O [TEMOZOLOMIDE] | no drug-induced liver injury reported | no drug-induced liver injury reported | drug-induced liver injury reported |  |  | 
5 | COc1cc([C@@H]2c3cc4c(cc3[C@@H](O[C@@H]3O[C@@H]5CO[C@@H](c6cccs6)O[C@H]5[C@H](O)[C@H]3O)[C@H]3COC(=O)[C@H]23)OCO4)cc(OC)c1O [TENIPOSIDE] | drug-induced liver injury reported | no drug-induced liver injury reported | no drug-induced liver injury reported |  |  | 
6 | C[C@H](Cn1cnc2c(N)ncnc21)OCP(=O)(O)O [TENOFOVIR ANHYDROUS] | no drug-induced liver injury reported | no drug-induced liver injury reported | drug-induced liver injury reported |  |  | 
7 | CN1C(C(=O)Nc2ccccn2)=C(O)c2sccc2S1(=O)=O [TENOXICAM] |  |  |  | no drug-induced liver injury reported | no drug-induced liver injury reported | drug-induced liver injury reported
8 | CN(C/C=C/C#CC(C)(C)C)Cc1cccc2ccccc12 [TERBINAFINE] | drug-induced liver injury reported | no drug-induced liver injury reported | drug-induced liver injury reported |  |  | 
9 | CC(C)(C)NCC(O)c1cc(O)cc(O)c1 (stereo not given) [TERBUTALINE] | drug-induced liver injury reported | drug-induced liver injury reported | no drug-induced liver injury reported |  |  | 
10 | CC(C)(C)c1ccc(C(O)CCCN2CCC(C(O)(c3ccccc3)c3ccccc3)CC2)cc1 (stereo not given) [TERFENADINE] | no drug-induced liver injury reported | no drug-induced liver injury reported | drug-induced liver injury reported |  |  | 
11 | NCCCC[C@H](NC(=O)[C@@H]1CCCN1C(=O)[C@@H]1CSSC[C@H](NC(=O)CNC(=O)CNC(=O)CN)C(=O)N[C@@H](Cc2ccc(O)cc2)C(=O)N[C@@H](Cc2ccccc2)C(=O)N[C@@H](CCC(N)=O)C(=O)N[C@@H](CC(N)=O)C(=O)N1)C(=O)NCC(N)=O [TERLIPRESSIN] | no drug-induced liver injury reported | drug-induced liver injury reported | drug-induced liver injury reported |  |  | 
12 | CCCCCCC(=O)O[C@H]1CC[C@H]2[C@@H]3CCC4=CC(=O)CC[C@]4(C)[C@H]3CC[C@]12C [TESTOSTERONE ENANTHATE] | drug-induced liver injury reported | no drug-induced liver injury reported | no drug-induced liver injury reported |  |  | 
13 | CCC(=O)O[C@H]1CC[C@H]2[C@@H]3CCC4=CC(=O)CC[C@]4(C)[C@H]3CC[C@]12C [TESTOSTERONE PROPIONATE] | drug-induced liver injury reported | no drug-induced liver injury reported | no drug-induced liver injury reported |  |  | 
14 | C[C@]12CC[C@H]3[C@@H](CCC4=CC(=O)CC[C@@]43C)[C@@H]1CC[C@@H]2O [TESTOSTERONE] | drug-induced liver injury reported | drug-induced liver injury reported | drug-induced liver injury reported |  |  | 
15 | COc1cc2c(cc1OC)C1CC(=O)C(CC(C)C)CN1CC2 (stereo not given) [TETRABENAZINE] | no drug-induced liver injury reported | no drug-induced liver injury reported | drug-induced liver injury reported |  |  | 
16 | CCCCNc1ccc(C(=O)OCCN(C)C)cc1 [TETRACAINE] | drug-induced liver injury reported | no drug-induced liver injury reported | no drug-induced liver injury reported |  |  | 
17 | ClC(Cl)=C(Cl)Cl [TETRACHLOROETHYLENE] | drug-induced liver injury reported | no drug-induced liver injury reported | drug-induced liver injury reported |  |  | 
18 | CN(C)[C@@H]1C(O)=C(C(N)=O)C(=O)[C@@]2(O)C(O)=C3C(=O)c4c(O)cccc4[C@@](C)(O)[C@H]3C[C@@H]12 [TETRACYCLINE] | drug-induced liver injury reported | drug-induced liver injury reported | drug-induced liver injury reported |  |  | 

Row | Compound | Hepatotoxicity [1] | Hepatotoxicity [2] | Hepatotoxicity [3] | Hepatotoxicity ([1]; Liver) | Hepatotoxicity ([2]; Liver) | Hepatotoxicity ([3]; Liver)
19 | COc1ccccc1Oc1c(NS(=O)(=O)c2ccc(C(C)C)cn2)nc(-c2ccnc(-c3nnn[nH]3)c2)nc1OCCO [TEZOSENTAN] | drug-induced liver injury reported | no drug-induced liver injury reported | no drug-induced liver injury reported |  |  | 
20 | O=C1CCC(N2C(=O)c3ccccc3C2=O)C(=O)N1 (stereo not given) [THALIDOMIDE] | drug-induced liver injury reported | no drug-induced liver injury reported | drug-induced liver injury reported |  |  | 
21 | Cn1c(=O)c2[nH]cnc2n(C)c1=O.O [THEOPHYLLINE] | drug-induced liver injury reported | drug-induced liver injury reported | drug-induced liver injury reported |  |  | 
22 | c1ccc2[nH]c(-c3cscn3)nc2c1 [THIABENDAZOLE] | drug-induced liver injury reported | drug-induced liver injury reported | drug-induced liver injury reported |  |  | 
23 | Cc1ncc(C[n+]2csc(CCO)c2C)c(N)n1 [THIAMINE ION] |  |  |  | drug-induced liver injury reported | no drug-induced liver injury reported | drug-induced liver injury reported
24 | CS(=O)(=O)c1ccc([C@@H](O)[C@@H](CO)NC(=O)C(Cl)Cl)cc1 [THIAMPHENICOL] | drug-induced liver injury reported | no drug-induced liver injury reported | drug-induced liver injury reported |  |  | 
25 | CSC[C@H]1C(=O)SC[C@@H](NC(=O)c2nc3ccccc3cc2O)C(=O)NCC(=O)N(C)[C@H]2SSC[C@@H](C(=O)N1C)N(C)C(=O)CNC(=O)[C@H](NC(=O)c1nc3ccccc3cc1O)CSC(=O)[C@H](CSC)N(C)C2=O [THIOCORALINE] | no drug-induced liver injury reported | no drug-induced liver injury reported | drug-induced liver injury reported |  |  | 
26 | CSc1ccc2c(c1)N(CCC1CCCCN1C)c1ccccc1S2 (stereo not given) [THIORIDAZINE] | drug-induced liver injury reported | no drug-induced liver injury reported | drug-induced liver injury reported |  |  | 
27 | OCCSCCCCCCCCCCSCCO [TIADENOL] | drug-induced liver injury reported | no drug-induced liver injury reported | no drug-induced liver injury reported |  |  | 
28 | CC(C(=O)O)c1ccc(C(=O)c2ccccc2)s1 (stereo not given) [TIAPROFENIC ACID] | drug-induced liver injury reported | no drug-induced liver injury reported | no drug-induced liver injury reported |  |  | 
29 | NC(=O)c1csc([C@@H]2O[C@H](CO)[C@@H](O)[C@H]2O)n1 [TIAZOFURIN] | drug-induced liver injury reported | no drug-induced liver injury reported | no drug-induced liver injury reported |  |  | 
30 | Clc1ccccc1CN1CCc2sccc2C1 [TICLOPIDINE] |  |  |  | drug-induced liver injury reported | no drug-induced liver injury reported | drug-induced liver injury reported
31 | CC(C)(C)NC[C@H](O)COc1nsnc1N1CCOCC1 [TIMOLOL] | no drug-induced liver injury reported | no drug-induced liver injury reported | drug-induced liver injury reported |  |  | 
32 | CC(S)C(=O)NCC(=O)O (stereo not given) [TIOPRONIN] | drug-induced liver injury reported | no drug-induced liver injury reported | drug-induced liver injury reported |  |  | 
33 | Nc1n[n+]([O-])c2ccccc2[n+]1[O-] [TIRAPAZAMINE] | drug-induced liver injury reported | no drug-induced liver injury reported | no drug-induced liver injury reported |  |  | 
34 | O=C(O)Cc1cc(I)c(Oc2ccc(O)c(I)c2)c(I)c1 [TIRATRICOL] | drug-induced liver injury reported | no drug-induced liver injury reported | no drug-induced liver injury reported |  |  | 
35 | Clc1ccc2nsnc2c1NC1=NCCN1 [TIZANIDINE] |  |  |  | no drug-induced liver injury reported | no drug-induced liver injury reported | drug-induced liver injury reported
